Results published in patent publication US6376497B1, “Antifungal azole derivatives having a fluorinated vinyl group and process for preparing same” (Korea Research Institute of Chemical Technology, priority 1999, dated 2002).

Assays:
Assay in all cases: In vitro antifungal activity, microbroth dilution MIC
Format in all cases: cell-based
Candida albicans C1-2 = settings: 4 to 48 hours; for Minimal inhibitory concentration (MIC): C. albicans C1-2, RPMI-1640, 35° C.
In short: (§1)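 Broth microdilution adapted from NCCLS M27, in RPMI-1640 with 0.165 M MOPS, pH 7.0. Yeast or mould inoculum at 2×10^3 CFU/ml was mixed 1:1 with DMSO-derived compound solutions (200 to 0.10 μg/ml before mixing) and incubated at 35 °C for 4 to 48 h. MIC was the concentration showing no growth.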

[1] = test system: Cryptococcus neoformans B. 42419; settings: 4 to 48 hours; for Minimal inhibitory concentration (MIC): Cry. neoformans B. 42419, RPMI-1640, 35° C.; for Minimal inhibitory concentration(MIC), Cry. neoformans B. 42419: RPMI-1640, 35° C., no growth observed
In short: as §1

Candida krusei K. 11655 = settings: 4 to 48 hours; for Minimal inhibitory concentration (MIC): C. krusei K. 11655, RPMI-1640, 35° C.; for Minimal inhibitory concentration(MIC), C. krusei K. 11655: RPMI-1640, 35° C., no growth observed
In short: as §1

[2] = test system: Candida parapsitosis A. 7330; settings: 4 to 48 hours; for Minimal inhibitory concentration (MIC): C. parapsitosis A. 7330, RPMI-1640, 35° C.; for Minimal inhibitory concentration(MIC), C. parapsitosis A. 7330: RPMI-1640, 35° C., no growth observed
In short: as §1

[3] = test system: Cryptococcus neoformans IFM. 40092; settings: 4 to 48 hours; for Minimal inhibitory concentration (MIC): Cry. neoformans IFM. 40092, RPMI-1640, 35° C.; for Minimal inhibitory concentration(MIC), Cry. neoformans IFM. 40092: RPMI-1640, 35° C., no growth observed
In short: as §1

[4] = test system: Candida pseudotropicalis K. 11658; settings: 4 to 48 hours; for Minimal inhibitory concentration (MIC): C. pseudotropicalis K. 11658, RPMI-1640, 35° C.; for Minimal inhibitory concentration(MIC), C. pseudotropicalis K. 11658: RPMI-1640, 35° C., no growth observed
In short: as §1

[5] = test system: Candida albicans IFO. 1385; settings: 4 to 48 hours; for Minimal inhibitory concentration (MIC): C. albicans IFO. 1385, RPMI-1640, 35° C.; for Minimal inhibitory concentration(MIC), C. albicans IFO. 1385: RPMI-1640, 35° C., no growth observed
In short: as §1

[6] = test system: Torulopsis glabrata B. 16205; settings: 4 to 48 hours; for Minimal inhibitory concentration (MIC): T. glabrata B. 16205, RPMI-1640, 35° C.; for Minimal inhibitory concentration(MIC), T. glabrata B. 16205: RPMI-1640, 35° C., no growth observed
In short: as §1

[7] = test system: Trichophyton mentagrophytes A. 9129; settings: 4 to 48 hours; for Minimal inhibitory concentration (MIC): T. mentagrophytes A. 9129, RPMI-1640, 35° C.; for Minimal inhibitory concentration(MIC), T. mentagrophytes A. 9129: RPMI-1640, 35° C., no growth observed
In short: as §1

[8] = test system: Trichophyton mentagrophytes B. 32663; settings: 4 to 48 hours; for Minimal inhibitory concentration (MIC): T. mentagrophytes B. 32663, RPMI-1640, 35° C.; for Minimal inhibitory concentration(MIC), T. mentagrophytes B. 32663: RPMI-1640, 35° C., no growth observed
In short: as §1

[9] = test system: Cryptococcus neoformans A. 34144; settings: 4 to 48 hours; for Minimal inhibitory concentration (MIC): Cry. neoformans A. 34144, RPMI-1640, 35° C.; for Minimal inhibitory concentration(MIC), Cry. neoformans A. 34144: RPMI-1640, 35° C., no growth observed
In short: as §1

[10] = test system: Aspergillus furnigatus B. 19119; settings: 4 to 48 hours; for Minimal inhibitory concentration (MIC): A furnigatus B. 19119, RPMI-1640, 35° C.; for Minimal inhibitory concentration(MIC), A furnigatus B. 19119: RPMI-1640, 35° C., no growth observed
In short: as §1

[11] = test system: Candida albicans A. 10231; settings: 4 to 48 hours; for Minimal inhibitory concentration (MIC): C. albicans A. 10231, RPMI-1640, 35° C.
In short: as §1

[12] = test system: Aspergillus niger A. 16404; settings: 4 to 48 hours; for Minimal inhibitory concentration (MIC): A. niger A. 16404, RPMI-1640, 35° C.; for Minimal inhibitory concentration(MIC), A. niger A. 16404: RPMI-1640, 35° C., no growth observed
In short: as §1

[13] = test system: Candida tropicalis A. 13803; settings: 4 to 48 hours; for Minimal inhibitory concentration (MIC): C. tropicalis A. 13803, RPMI-1640, 35° C.; for Minimal inhibitory concentration(MIC), C. tropicalis A. 13803: RPMI-1640, 35° C., no growth observed
In short: as §1

[14] = RPMI-1640, 35° C., no growth observed

| Compound | Minimal inhibitory concentration (MIC) (Candida albicans C1-2) | Minimal inhibitory concentration (MIC) [1] | Minimal inhibitory concentration (MIC) (Candida krusei K. 11655) | Minimal inhibitory concentration (MIC) [2] | Minimal inhibitory concentration (MIC) [3] | Minimal inhibitory concentration (MIC) [4] | Minimal inhibitory concentration (MIC) [5] | Minimal inhibitory concentration (MIC) [6] | Minimal inhibitory concentration (MIC) [7] | Minimal inhibitory concentration (MIC) [8] | Minimal inhibitory concentration (MIC) [9] | Minimal inhibitory concentration (MIC) [10] | Minimal inhibitory concentration (MIC) [11] | Minimal inhibitory concentration (MIC) [12] | Minimal inhibitory concentration (MIC) [13] | Minimal inhibitory concentration(MIC), Cry. neoformans B. 42419 [1] | Minimal inhibitory concentration(MIC), C. krusei K. 11655 (Candida krusei K. 11655) | Minimal inhibitory concentration(MIC), C. parapsitosis A. 7330 [2] | Minimal inhibitory concentration(MIC), Cry. neoformans IFM. 40092 [3] | Minimal inhibitory concentration(MIC), C. pseudotropicalis K. 11658 [4] | further results |
| --- | --- | --- | --- | --- | --- | --- | --- | --- | --- | --- | --- | --- | --- | --- | --- | --- | --- | --- | --- | --- | --- |
| Cc1cc(C)cc(C(=C(F)OCC2COC(Cn3ccnc3)(c3ccc(F)cc3F)O2)C(F)(F)F)c1 (mixture of isomers) [Ex. 57] | 12.5 µg/mL | 0.78 µg/mL | >100 µg/mL | >100 µg/mL | 0.20 µg/mL | >100 µg/mL | 0.78 µg/mL | 6.25 µg/mL | 6.25 µg/mL | 3.13 µg/mL | 1.56 µg/mL | 50.0 µg/mL | 12.5 µg/mL | >100 µg/mL | 100 µg/mL |  |  |  |  |  |  |
| Cc1ccc(C=C(F)OCC2COC(Cn3ccnc3)(c3ccc(F)cc3F)O2)cc1C (mixture of isomers) [Ex. 40] | 12.5 µg/mL | 1.56 µg/mL | 25.0 µg/mL | 25.0 µg/mL | 0.20 µg/mL | 25.0 µg/mL | 0.78 µg/mL | 6.25 µg/mL | 6.25 µg/mL | 1.56 µg/mL | 1.56 µg/mL | 12.5 µg/mL | 12.5 µg/mL | 25.0 µg/mL | 25.0 µg/mL |  |  |  |  |  |  |
| CCc1ccc(C=C(F)OCC2COC(Cn3cncn3)(c3ccc(Cl)cc3Cl)O2)cc1 (mixture of isomers) [Ex. 72] | 25.0 µg/mL |  |  |  |  |  |  |  |  |  |  |  | 250 µg/mL |  |  | 3.13 µg/mL | 25.0 µg/mL | 100 µg/mL | 1.56 µg/mL | 12.5 µg/mL | Minimal inhibitory concentration(MIC), C. albicans IFO. 1385 [5]: 1.56 µg/mL; Minimal inhibitory concentration(MIC), T. glabrata B. 16205 [6]: 25.0 µg/mL; Minimal inhibitory concentration(MIC), T. mentagrophytes A. 9129 [7]: 12.5 µg/mL; Minimal inhibitory concentration(MIC), T. mentagrophytes B. 32663 [8]: 12.5 µg/mL; Minimal inhibitory concentration(MIC), Cry. neoformans A. 34144 [9]: 3.13 µg/mL; Minimal inhibitory concentration(MIC), A furnigatus B. 19119 [10]: >100 µg/mL; Minimal inhibitory concentration(MIC), A. niger A. 16404 [12]: >100 µg/mL; Minimal inhibitory concentration(MIC), C. tropicalis A. 13803 [13]: 25.0 µg/mL |
| FC(Oc1ccc(OCC2COC(Cn3ccnc3)(c3ccc(Cl)cc3Cl)O2)cc1)=C(c1ccc(Cl)cc1)C(F)(F)F (mixture of isomers) [Ex. 102] |  |  |  |  |  |  |  |  |  |  |  |  |  |  |  | >100 µg/mL | >100 µg/mL | >100 µg/mL | 3.13 µg/mL | >100 µg/mL | Minimal inhibitory concentration(MIC), C. albicans C1-2 (Candida albicans C1-2; [14]): 100 µg/mL; Minimal inhibitory concentration(MIC), C. albicans IFO. 1385 [5]: 6.25 µg/mL; Minimal inhibitory concentration(MIC), T. glabrata B. 16205 [6]: 100 µg/mL; Minimal inhibitory concentration(MIC), T. mentagrophytes A. 9129 [7]: 25.0 µg/mL; Minimal inhibitory concentration(MIC), T. mentagrophytes B. 32663 [8]: 12.5 µg/mL; Minimal inhibitory concentration(MIC), Cry. neoformans A. 34144 [9]: 12.5 µg/mL; Minimal inhibitory concentration(MIC), A furnigatus B. 19119 [10]: 100 µg/mL; Minimal inhibitory concentration(MIC), C. albicans A. 10231 [11, 14]: 100 µg/mL; Minimal inhibitory concentration(MIC), A. niger A. 16404 [12]: >100 µg/mL; Minimal inhibitory concentration(MIC), C. tropicalis A. 13803 [13]: >100 µg/mL |
